Assay results as given in paper PMC9368981, “The γ-Core Motif Peptides of AMPs from Grasses Display Inhibitory Activity against Human and Plant Pathogens” (International Journal of Molecular Sciences, 2022).
Where a SMILES comes first, the peptide text is derived from it.

Tests used:
[1] = tested on: Cryptococcus neoformans VKM Y-2755; format: cell-based
Method: (§1) The antimicrobial activity of synthetic peptides was tested against a panel of human and plant pathogens. Among them were the yeasts Candida albicans VKM Y-2994 and Cryptococcus neoformans VKM Y-2755, the plant pathogenic bacteria Clavibacter michiganensis subsp. michiganensis VKM Ac-1403, Pseudomonas savastanoi pv. savastanoi VKM B-1546 and Pectobacterium carotovorum subsp. carotovorum VKM B-1247, and four Fusarium species (F. oxysporum VKM F-137, F. culmorum VKM F-2303, F. solani VKM F-142 and F. verticillioides VKM F-670), which cause diseases in plants and humans. The antimicrobial activity was first measured at the peptide concentration of 300 µM (Figure 3).
(§2) The antimicrobial activity of synthetic peptides was tested against the yeasts Candida albicans VKM Y-2994 and Cryptococcus neoformans VKM Y-2755, the bacteria Pseudomonas savastanoi pv. savastanoi VKM B-1546, Pectobacterium carotovorum subsp. carotovorum VKM B-1247 and Clavibacter michiganensis subsp. michiganensis VKM Ac-1403, and four Fusarium species: F. culmorum VKM F-2303, F. oxysporum VKM F-137, F. solani VKM F-142 and F. verticillioides VKM F-670. All cultures were obtained from the All-Russian Collection of Microorganisms (VKM). The details of the production and storage of cultures of microorganisms used in this study are described at the VKM Home page. Antimicrobial assays were accomplished according to the procedure described earlier. In short, yeasts were grown on the YPD-P medium and the bacteria P. carotovorum and Cl. michiganensis were cultured on a modified YPD-P medium. The Fusarium fungi were grown on potato dextrose agar at 25 °C for 7–8 days, and spores were washed off from the surface of the mycelia with sterile, distilled water. The antimicrobial activity of the peptides was measured in immunoassay microtiter plates according to the protocol of Broekaert et al.. With yeasts and bacteria, each well contained 10 µL of the tested peptide solution (final concentrations of 10–300 µM) in water, 80 µL of the medium and 10 µL of the microbial suspension. The plates were incubated at 30 °C for 24 h, and the absorbance of the suspension was measured on an Efos 9305 spectrophotometer (Sapphire, Moscow, Russia) at 594 nm. For Fusarium species, the wells of a microtiter plate were filled with 90 µL of the fungal spore suspension in half-strength potato dextrose broth at a concentration of 2000–3000 spores in 100 µL and 10 µL of aqueous solutions of peptides at final concentrations of 10–300 µM. After 38 h of incubation, the absorbance was recorded at 595 nm on a FilterMax F5 Multi-Mode Microplate Reader (Molecular Devices, San Jose, CA, USA). Antimicrobial activity is expressed in IC50 values, which show the concentration necessary for 50% inhibition of the pathogen growth; this was determined from a graph showing the activity dependence on peptide concentration.
(§3) For each pathogen, experiments on the peptide antimicrobial activity evaluation were carried out in triplicate per treatment. Mean values, standard deviations (SD), and the significance of differences (p ≤ 0.05) of the means between treatments and controls (t-test for independent variables) were determined using STATISTICA v. 6.1 software (StatSoft Inc., Tulsa, OK, USA).

[2] = tested on: Pseudomonas savastanoi pv. savastanoi VKM B-1546; format: cell-based; settings: 30 °C, 24 h, absorbance 594 nm
Method: as §1, §2, §3

[3] = tested on: Clavibacter michiganensis subsp. michiganensis VKM Ac-1403; test: Growth inhibition of Cl. michiganensis in microtiter plates; format: cell-based; settings: inhibition curves (Figure 4)
Method: as §1
The antimicrobial activity of synthetic peptides was tested against the yeasts Candida albicans VKM Y-2994 and Cryptococcus neoformans VKM Y-2755, the bacteria Pseudomonas savastanoi pv. savastanoi VKM B-1546, Pectobacterium carotovorum subsp. carotovorum VKM B-1247 and Clavibacter michiganensis subsp. michiganensis VKM Ac-1403, and four Fusarium species: F. culmorum VKM F-2303, F. oxysporum VKM F-137, F. solani VKM F-142 and F. verticillioides VKM F-670. All cultures were obtained from the All-Russian Collection of Microorganisms (VKM). […] The antimicrobial activity of the peptides was measured in immunoassay microtiter plates according to the protocol of Broekaert et al.. […] The plates were incubated at 30 °C for 24 h, and the absorbance of the suspension was measured on an Efos 9305 spectrophotometer (Sapphire, Moscow, Russia) at 594 nm. […] After 38 h of incubation, the absorbance was recorded at 595 nm on a FilterMax F5 Multi-Mode Microplate Reader (Molecular Devices, San Jose, CA, USA). […]
For each pathogen, experiments on the peptide antimicrobial activity evaluation were carried out in triplicate per treatment. Mean values, standard deviations (SD), and the significance of differences (p ≤ 0.05) of the means between treatments and controls (t-test for independent variables) were determined using STATISTICA v. […]

Cr. neoformans cells [4] = test: Propidium iodide staining, fluorescence microscopy; format: cell-based, Cryptococcus neoformans; settings: peptide 300 µM, 30 °C, 1 h, 0.03 mM PI 15 min
Method: (§4) Their ability to disturb the integrity of pathogen membranes was assayed by staining with propidium iodide of C. albicans and Cr. neoformans cells preliminarily incubated with the peptides. The results were visualized by fluorescent microscopy and quantified by flow cytometry (Figure 5, Figure 6 and Figure 7).
(§5) Staining of yeast cells with propidium iodide in the presence of the γ-core peptides was carried out according to the protocol described earlier. C. albicans or Cr. neoformans cells (24 h culture in YPD-P at a cell concentration of 2 × 10^8/mL) were incubated with the peptide at a concentration of 300 µM at 30 °C for 1 h. After incubation, 1 mL of the cells was stained with 0.03 mM propidium iodide (Sigma, St. Louis, MO, USA). The staining proceeded for 15 min at 30 °C. The fluorescence was recorded on an AXIO Imager A1 fluorescence microscope (ZEISS, Göttingen, Germany) using a Zeiss filter set 56 HE.

C. albicans cells = test: Propidium iodide staining, fluorescence microscopy; format: cell-based, Candida albicans; settings: peptide 300 µM, 30 °C, 1 h, 0.03 mM PI 15 min
Method: as §4, §5

[5] = tested on: F. verticillioides VKM F-670; format: cell-based, Fusarium verticillioides
Method: as §1, §2, §3

[6] = tested on: Candida albicans VKM Y-2994; format: cell-based
Method: as §1, §2, §3

[7] = tested on: Pectobacterium carotovorum subsp. carotovorum VKM B-1247; settings: 300 µM peptide; modified YPD-P medium, 30 °C, 24 h, absorbance 594 nm; vs control without peptide; triplicate, mean
Method: All cultures were obtained from the All-Russian Collection of Microorganisms (VKM).
Mean values, standard deviations (SD), and the significance of differences (p ≤ 0.05) of the means between treatments and controls (t-test for independent variables) were determined using […] v. 6.1 software (StatSoft Inc., Tulsa, OK, USA).

Cr. neoformans cells [8] = test: Propidium iodide penetration, flow cytometry; format: cell-based, Cryptococcus neoformans; settings: 28 °C, 2 h
Method: as §4
For flow cytometry experiments with Cr. neoformans, the yeasts were grown on the YPD medium at 28 °C for 48 h. After that, the cells were centrifuged at 12,000× g for 3 min, washed with MiliQ water and incubated with the peptides dissolved in water at a concentration of 300 µM at 28 °C for 2 h. The cells were stained with propidium iodide by direct addition of the dye to the incubation medium (final concentration of 2 µg/mL) and measured on a NovoCyte Flow cytometer (Agilent, Santa Clara, CA, USA) using the channel FL2 (488 nm excitation and 585 nm emission). The sample without peptides was used as a control.

[9] = inhibition curves (Figure 4), highest tested concentration (300 µM)

SMILES	Inhibition of Cr. neoformans at 50 µM ([1]; inhibition curves (Figure 4), peptide 50 µM)	Pathogen inhibition, % (Ps. savastanoi) ([2]; 300 µM peptide, vs control without peptide, triplicate, mean)	Inhibition of Cl. michiganensis at 100 µM ([3]; peptide 100 µM)	Inhibition of Cl. michiganensis at the highest tested concentration ([3]; highest tested concentration of 300 µM) [%]	Membrane permeabilization of Cr. neoformans cells (PI staining) (Cr. neoformans cells [4])	Membrane permeabilization of C. albicans cells (PI staining) (C. albicans cells)	Maximum inhibition of F. verticillioides at 150 µM ([5]; inhibition curves (Figure 4), peptide 150 µM)	IC50 ([5]; peptide 10–300 µM, 38 h, absorbance 595 nm, from activity vs concentration graph, mean ± SD) [µM]	Inhibition of C. albicans at the highest tested concentration [6, 9]	IC50 ([6]; peptide 10–300 µM, 30 °C, 24 h, absorbance 594 nm, from activity vs concentration graph, mean ± SD) [µM]	Inhibition of Cr. neoformans at the highest tested concentration [1, 9] [%]	IC50 ([1]; peptide 10–300 µM, 30 °C, 24 h, absorbance 594 nm, from activity vs concentration graph, mean ± SD, read-out: IC50, μM Cr. neoformans) [µM]	IC50 ([2]; peptide 10–300 µM, from activity vs concentration graph, mean ± SD, read-out: IC50, μM Ps. savastanoi) [µM]	Pathogen inhibition, % (P. carotovorum) [7] [%]	Penetration of propidium iodide (PI) into Cr. neoformans cells (Cr. neoformans cells [8]; peptide 300 µM in water, PI 2 µg/mL, FL2 (488/585 nm)) [%]	Number of Cr. neoformans cells in flow cytometry (Cr. neoformans cells [8]; peptide 300 µM)
C[C@H](NC(=O)[C@H](CCCNC(=N)N)NC(=O)[C@H](CCCCN)NC(=O)[C@H](CS)NC(=O)[C@H](Cc1ccccc1)NC(=O)[C@H](CS)NC(=O)[C@H](CCCCN)NC(=O)[C@H](CCCNC(=N)N)NC(=O)[C@H](C)NC(=O)[C@H](Cc1ccccc1)NC(=O)[C@H](CC(N)=O)NC(=O)[C@H](Cc1c[nH]cn1)NC(=O)[C@@H](NC(=O)[C@H](Cc1c[nH]cn1)NC(=O)[C@H](CS)NC(=O)[C@H](CCC(=O)O)NC(=O)CN)[C@@H](C)O)C(=O)N[C@@H](CS)C(=O)O [DEFL1-36_65-82] (H-GECHTHNFARKCFCKRAC-OH; N-terminus and C-terminus assumed)	complete inhibition	failed to suppress	complete inhibition													
CC(C)C[C@H](NC(=O)[C@H](CCCNC(=N)N)NC(=O)[C@H](C)NC(=O)[C@H](CS)NC(=O)[C@H](CS)NC(=O)CNC(=O)[C@@H]1CCCN1)C(=O)N[C@@H](CCCNC(=N)N)C(=O)N[C@@H](C)C(=O)N[C@@H](CCC(N)=O)C(=O)N[C@@H](CCCNC(=N)N)C(=O)N[C@@H](C)C(=O)N[C@@H](CS)C(=O)O [TkLTP2.25_50-62] (H-PGCCARLRAQRAC-OH; N-terminus and C-terminus assumed)				95	induced membrane permeabilization	induced membrane permeabilization										
C[C@H](NC(=O)[C@H](CCCNC(=N)N)NC(=O)CNC(=O)[C@@H](NC(=O)[C@H](Cc1ccc(O)cc1)NC(=O)[C@@H]1CCCN1C(=O)[C@H](CCCNC(=N)N)NC(=O)CNC(=O)[C@H](CCCNC(=N)N)NC(=O)[C@H](C)NC(=O)[C@@H]1CCCN1C(=O)[C@@H](N)CS)[C@@H](C)O)C(=O)N[C@@H](CS)C(=O)O [DEFL4-37_90-102] (H-CPARGRPYTGRAC-OH; N-terminus and C-terminus assumed)					induced membrane permeabilization	induced membrane permeabilization	about 35%	> 100	about 35%	> 100	100	> 100	> 100	36	68.48	reduction in the number of Cr. neoformans cells
